Assay results from PubChem BioAssay AID1259411 (Chemical Carcinogenesis Research Information System (CCRIS), 2018).
The source made the active and inactive calls. No rule for the calls is given here.

System: rodent carcinogenicity bioassays, tumor incidence
Assay: CCRIS carcinogenicity studies
Settings: Dose: 0, Dose: 0
In short: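 Archive of carcinogenicity, mutagenicity, tumor promotion and tumor inhibition results drawn from journals, NCI reports and other sources, expert-reviewed; covers 1985-2011 and is no longer updated.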

In the case of `CCC(O)OC` (configuration not stated), the carcinogen call (Species: MOUSE, Strain/Sex: B6C3F1/FEMALE, Route: INHALATION, 300, 1000, 3000 PPM 6 HR/D 5 D/WK FOR 2 YR (STUDY DURATION: 2 YR), 300, 1000, 3000 PPM 6 HR/D 5 D/WK FOR 2 YR (STUDY DURATION: 2 YR)) is reported as “inactive; negative”, the carcinogen call (Species: MOUSE, Strain/Sex: B6C3F1/MALE, Route: INHALATION, 300, 1000, 3000 PPM 6 HR/D 5 D/WK FOR 2 YR (STUDY DURATION: 2 YR), 300, 1000, 3000 PPM 6 HR/D 5 D/WK FOR 2 YR (STUDY DURATION: 2 YR)) is reported as “inactive; negative” and the carcinogen call (Species: RAT, Strain/Sex: F344/FEMALE, Route: INHALATION, 300, 1000, 3000 PPM 6 HR/D 5 D/WK FOR 2 YR (STUDY DURATION: 2 YR), 300, 1000, 3000 PPM 6 HR/D 5 D/WK FOR 2 YR (STUDY DURATION: 2 YR)) is reported as “inactive; negative”. For the same molecule, the carcinogen call (Species: RAT, Strain/Sex: F344/MALE, Route: INHALATION, 300, 1000, 3000 PPM 6 HR/D 5 D/WK FOR 2 YR (STUDY DURATION: 2 YR), 300, 1000, 3000 PPM 6 HR/D 5 D/WK FOR 2 YR (STUDY DURATION: 2 YR)) was “inactive; negative”.
For `c1ccc2occc2c1`, the carcinogen call (Species: MOUSE, Strain/Sex: B6C3F1/FEMALE, Route: GAVAGE, 120, 240 MG/KG IN CORN OIL 5 D/WK FOR 103 WK (STUDY DURATION: 104 WK), 120, 240 MG/KG IN CORN OIL 5 D/WK FOR 103 WK (STUDY DURATION: 104 WK), Tumor Site: Type of Lesion: LUNG: ALVEOLAR/BRONCHIOLAR ADENOMA, ALVEOLAR/BRONCHIOLAR CARCINOMA, LIVER: HEPATOCELLULAR ADENOMA, HEPATOCELLULAR ADENOM) was “active; positive”, the carcinogen call (Species: MOUSE, Strain/Sex: B6C3F1/MALE, Route: GAVAGE, 60, 120 MG/KG IN CORN OIL 5 D/WK FOR 103 WK (STUDY DURATION: 104 WK), 60, 120 MG/KG IN CORN OIL 5 D/WK FOR 103 WK (STUDY DURATION: 104 WK), Tumor Site: Type of Lesion: LUNG: ALVEOLAR/BRONCHIOLAR ADENOMA, ALVEOLAR/BRONCHIOLAR ADENOMA OR CARCINOMA, LIVER: HEPATOCELLULAR ADENOMA, HEPATOCELL) was “active; positive” and the carcinogen call (Species: RAT, Strain/Sex: F344/FEMALE, Route: GAVAGE, 60, 120 MG/KG IN CORN OIL 5 D/WK FOR 103 WK (STUDY DURATION: 104 WK), 60, 120 MG/KG IN CORN OIL 5 D/WK FOR 103 WK (STUDY DURATION: 104 WK), Tumor Site: Type of Lesion: KIDNEY: TUBULAR CELL ADENOCARCINOMA) was “active; positive”. The carcinogen call (Species: RAT, Strain/Sex: F344/MALE, Route: GAVAGE, 30, 60 MG/KG IN CORN OIL 5 D/WK FOR 103 WK (STUDY DURATION: 104 WK), 30, 60 MG/KG IN CORN OIL 5 D/WK FOR 103 WK (STUDY DURATION: 104 WK)) was “inactive; negative”.
`CCNC(=O)Nc1ncc([N+](=O)[O-])s1` was tested, and the carcinogen call (Species: MOUSE, Strain/Sex: B6C3F1/FEMALE, Route: ORAL, 2500, 5000 PPM IN DIET FOR 94 WK (STUDY DURATION: 104 WK), 2500, 5000 PPM IN DIET FOR 94 WK (STUDY DURATION: 104 WK), Tumor Site: Type of Lesion: LIVER: HEPATOCELLULAR ADENOMA OR CARCINOMA) was “equivocal”, the carcinogen call (Species: MOUSE, Strain/Sex: B6C3F1/MALE, Route: ORAL, 2500, 5000 PPM IN DIET FOR 94 WK (STUDY DURATION: 104 WK), 2500, 5000 PPM IN DIET FOR 94 WK (STUDY DURATION: 104 WK), Tumor Site: Type of Lesion: LIVER: HEPATOCELLULAR CARCINOMA OR ADENOMA) was “active; positive” and the carcinogen call (Species: RAT, Strain/Sex: F344/FEMALE, Route: ORAL, 625, 1250 PPM IN DIET FOR 94 WK (STUDY DURATION: 104 WK), 625, 1250 PPM IN DIET FOR 94 WK (STUDY DURATION: 104 WK), Tumor Site: Type of Lesion: INTEGUMENTARY SYSTEM (SKIN AND SUBCUTANEOUS TISSUE) AND MAMMARY GLAND: FIBROADENOMA OR CYSTADENOMA (NOS)) was “active; positive”. For the same molecule, the carcinogen call (Species: RAT, Strain/Sex: F344/MALE, Route: ORAL, 625, 1250 PPM IN DIET FOR 94 WK (STUDY DURATION: 104 WK), 625, 1250 PPM IN DIET FOR 94 WK (STUDY DURATION: 104 WK)) was “inactive; negative”.
With `Clc1ccc2c(c1)C(c1ccccc1)=NCc1nncn1-2` the carcinogen call (Species: MOUSE, Strain/Sex: B6C3F1/FEMALE, Route: ORAL, 0.8, 3, 10 MG/KG IN DIET FOR 2 YR (STUDY DURATION: 2 YR), 0.8, 3, 10 MG/KG IN DIET FOR 2 YR (STUDY DURATION: 2 YR)) was “inactive; negative”, the carcinogen call (Species: MOUSE, Strain/Sex: B6C3F1/FEMALE, Route: ORAL, 0.8, 3, 10 MG/KG/D IN DIET FOR 2 YR (STUDY DURATION: 2 YR), 0.8, 3, 10 MG/KG/D IN DIET FOR 2 YR (STUDY DURATION: 2 YR)) was “inactive; negative” and the carcinogen call (Species: MOUSE, Strain/Sex: B6C3F1/MALE, Route: ORAL, 0.8, 3, 10 MG/KG IN DIET FOR 2 YR (STUDY DURATION: 2 YR), 0.8, 3, 10 MG/KG IN DIET FOR 2 YR (STUDY DURATION: 2 YR)) was “inactive; negative”. The carcinogen call (Species: MOUSE, Strain/Sex: B6C3F1/MALE, Route: ORAL, 0.8, 3, 10 MG/KG/D IN DIET FOR 2 YR (STUDY DURATION: 2 YR), 0.8, 3, 10 MG/KG/D IN DIET FOR 2 YR (STUDY DURATION: 2 YR)) was “inactive; negative”, the carcinogen call (Species: RAT, Strain/Sex: SPRAGUE-DAWLEY/FEMALE, Route: ORAL, 0.5, 2, 10 MG/KG IN DIET FOR 2 YR (STUDY DURATION: 2 YR), 0.5, 2, 10 MG/KG IN DIET FOR 2 YR (STUDY DURATION: 2 YR)) was “inactive; negative” and the carcinogen call (Species: RAT, Strain/Sex: SPRAGUE-DAWLEY/MALE, Route: ORAL, 0.5, 2, 10 MG/KG IN DIET FOR 2 YR (STUDY DURATION: 2 YR), 0.5, 2, 10 MG/KG IN DIET FOR 2 YR (STUDY DURATION: 2 YR)) was “inactive; negative”. For the same molecule, the carcinogen call (Species: RAT, Strain/Sex: STRAIN-CD/FEMALE, Route: ORAL, 0.5, 2, 10 MG/KG/D IN DIET FOR 2 YR (STUDY DURATION: 2 YR), 0.5, 2, 10 MG/KG/D IN DIET FOR 2 YR (STUDY DURATION: 2 YR)) was “inactive; negative” and the carcinogen call (Species: RAT, Strain/Sex: STRAIN-CD/MALE, Route: ORAL, 0.5, 2, 10 MG/KG/D IN DIET FOR 2 YR (STUDY DURATION: 2 YR), 0.5, 2, 10 MG/KG/D IN DIET FOR 2 YR (STUDY DURATION: 2 YR)) was “inactive; negative”.
`Cc1ccc(/C(=C\CN2CCCC2)c2ccccn2)cc1` was tested, and the carcinogen call (Species: MOUSE, Strain/Sex: B6C3F1/FEMALE, Route: ORAL, 500, 2000, 4000 PPM IN DIET FOR 2 YR (STUDY DURATION: 2 YR), 500, 2000, 4000 PPM IN DIET FOR 2 YR (STUDY DURATION: 2 YR)) was “inactive; negative”, the carcinogen call (Species: MOUSE, Strain/Sex: B6C3F1/MALE, Route: ORAL, 500, 2000, 4000 PPM IN DIET FOR 2 YR (STUDY DURATION: 2 YR), 500, 2000, 4000 PPM IN DIET FOR 2 YR (STUDY DURATION: 2 YR)) was “inactive; negative” and the carcinogen call (Species: RAT, Strain/Sex: F344/FEMALE, Route: ORAL, 250, 1000, 2000 PPM IN DIET FOR 103 WK (STUDY DURATION: 104 WK), 250, 1000, 2000 PPM IN DIET FOR 103 WK (STUDY DURATION: 104 WK)) was “inactive; negative”. The carcinogen call (Species: RAT, Strain/Sex: F344/MALE, Route: ORAL, 250, 1000, 2000 PPM IN DIET FOR 103 WK (STUDY DURATION: 104 WK), 250, 1000, 2000 PPM IN DIET FOR 103 WK (STUDY DURATION: 104 WK)) was “inactive; negative”.
With `CCC(C)(CC)c1cc(NC(=O)c2c(OC)cccc2OC)on1` the carcinogen call (Species: Mouse, Strain/Sex: B6C3F1/Male (60/Group), Route: Oral, 100, 1000, 12,500 ppm of 85% isoxaben (plus 10.5% closely related isomers) in diet for 2 yr, study duration 2 yr, 100, 1000, 12,500 ppm of 85% isoxaben (plus 10.5% closely related isomers) in diet for 2 yr, study duration 2 yr, Tumor Site: Type of Lesion: Liver: Hepatocellular adenomas (increased incidence and multiplicity at 12,500 ppm)) was “active; positive”, the carcinogen call (Species: Rat, Strain/Sex: Fischer 344/Female (60/Group), Route: Oral, 125, 1250, 12,500 ppm of 85% isoxaben (plus 10.5% closely related isomers) in diet for 2 yr, study duration 2 yr, 125, 1250, 12,500 ppm of 85% isoxaben (plus 10.5% closely related isomers) in diet for 2 yr, study duration 2 yr) was “inactive; negative” and the carcinogen call (Species: Rat, Strain/Sex: Fischer 344/Male (60/Group), Route: Oral, 125, 1250, 12,500 ppm of 85% isoxaben (plus 10.5% closely related isomers) in diet for 2 yr, study duration 2 yr, 125, 1250, 12,500 ppm of 85% isoxaben (plus 10.5% closely related isomers) in diet for 2 yr, study duration 2 yr, Tumor Site: Type of Lesion: Adrenal gland: pheochromocytoma (highest dose)) was “active; positive”.
